Experimental data: patent US20240327320A1, “NOVEL ROUTES OF CHEMICAL SYNTHESIS OF 20S(OH)D3, 20S,25(OH)2D3, 20S,23S(OH)2D3, AND 20S,23R(OH)2D3 AND THEIR MODIFICATION OF THE IMMUNE ACTIVITY OF PBMCS” (United State Government as represen ted by the Department …, priority 2023, published 2024)

System: Human epidermal keratinocytes (HEKn)
Assay: Gene expression of differentiation markers, quantitative RT-PCR
Type: cell-based
Conditions: 8 h, FIG. 7A, compared to 20S(OH)D3
Protocol: RNA isolation and reverse transcription were performed as described previously (Slominski A T, et. al., (2021) Sci Rep 11(1) 8002). Quantitative RT-PCR was carried out using Sybr green Master Mix (Thermo Scientific, Waltham, MA), in triplicates as previously described (Slominski A T, et. al., (2021) Sci Rep 11(1) 8002; Janjetovic Z, et. al., (2014) J Pineal Res 57(1) 90-102). Human epidermal keratinocytes (HEKn) isolated from foreskin of white neonates were cultured until the third passage before treatment as described in the literature (Chaiprasongsuk A, et. al., (2019) Redox Biol 24 101206; Janjetovic Z, et. al., (2009) PloS one 4(6) e5988). Cells were treated with vitamin D3 derivatives for 8 h or 24 h and harvested for RNA isolation. Approximately 300 ng of RNA was used for cDNA synthesis and an equal amount of cDNA was used for PCR reactions. Cyclophilin B or GAPDH was used as an internal control. Primers sequences are listed in (Chaiprasongsuk A, et. al., (2020) Free Radic Biol Med 155 87-9845, Slominski A T, et. al., (2017) Sci Rep 7(1) 11434). Reactions were done in triplicate.
Referring to FIG. 7A-D, stimulation of keratinocyte differentiation by 20S(OH)D3, 20S,25(OH)2D3, 20S,23S(OH)2D3 and 20S,23R(OH)2D3 in comparison to 1α,25(OH)2D3. […]

Compound: C=C1CC[C@H](O)C/C1=C/C=C1\CCC[C@@]2(C)[C@H]1CC[C@@H]2[C@@](C)(O)CCCC(C)(C)O [20S,25(OH)2D3, (20S)-20,25-Dihydroxyvitamin D3]
- gene expression of involucrin, CK10, and filaggrin: slightly better at inducing gene expression of involucrin, CK10, and filaggrin
